In PMC9721423, “Novel benzo chromene derivatives: design, synthesis, molecular docking, cell cycle arrest, and apoptosis induction in human acute myeloid leukemia HL-60 cells” (Journal of Enzyme Inhibition and Medicinal Chemistry, 2022):
Where two headings read alike, the source gives them in different places.

Legend:
Experiment in all cases: cells
Set-up in all cases: species or system NCI-60 human tumour cell lines; NCI-60 five-dose growth inhibition screen, sulforhodamine B protein stain
SK-MEL-2 = conditions: Homo sapiens, SK-MEL-2, 48 h
Protocol: (§1) All the newly synthesised 28 compounds were selected for single-dose testing. NCI60 single-dose testing is performed in all 60 cell lines according to the reported assay (National Cancer Institute, https://dtp.cancer.gov/) (National Cancer Institute https://dtp.cancer.gov/discovery_development/nci-60/), compounds were dissolved in DMSO: glycerol […] and are stored in a −70 °C freezer. The prepared compounds were added at single concentration of 1 0^−5 M and the culture was incubated for 48 h. End point determinations were made with a protein binding dye, sulforhodamine B (SRB). The human tumour cell lines were derived from nine different cancer types: leukaemia, melanoma, lung, colon, central nervous system (CNS), ovarian, renal, prostate, and breast cancers. Dose–response curves for these compounds were created by plotting the percentage growth (PGs or % growth) against log10 of the corresponding concentration for every cell line. Three response parameters, GI50 (Median Growth Inhibitory Concentration), TGI (Total Growth Inhibitory Concentration), and LC50 (Median Lethal Concentration) were calculated[54] (National Cancer Institute, https://dtp.cancer.gov/discovery_development/nci-60/) (National Cancer Institute, https://dtp.cancer.gov/)[55] for compounds 5a and 6a. […] Furthermore, the average sensitivity of all cell lines towards the compound is termed as the full panel mean graph midpoints (MG-MID). The ratio obtained by dividing the full panel mean graph midpoints (MG-MID) concentration by the individual subpanel MG-MID concentrations (obtained as the average sensitivity of all cell lines of a particular subpanel towards the test compound) is considered a criterion for the compound selectivity towards the corresponding cell line. Ratios greater than 6 indicate high selectivity while ratios between 3 and 6 refer to moderate selectivity whereas compounds not meeting either of these criteria were rated non-selective[56].

786-0 = conditions: Homo sapiens, 786-0, 48 h
Protocol: as §1

HCT-15 = conditions: Homo sapiens, HCT-15, 48 h
Protocol: as §1

EKVX = conditions: Homo sapiens, EKVX, 48 h
Protocol: as §1

NCI/ADR-RES = conditions: Homo sapiens, NCI/ADR-RES, 48 h
Protocol: as §1

SF-539 = conditions: Homo sapiens, SF-539, 48 h
Protocol: as §1

HOP-92 = conditions: Homo sapiens, HOP-92, 48 h
Protocol: as §1

CCRF-CEM = conditions: Homo sapiens, CCRF-CEM, 48 h
Protocol: as §1

A549/ATCC = conditions: Homo sapiens, A549, 48 h
Protocol: as §1

M14 = conditions: Homo sapiens, M14, 48 h
Protocol: as §1

NCI-H460 = conditions: Homo sapiens, NCI-H460, 48 h
Protocol: as §1

IGROV1 = conditions: Homo sapiens, IGROV-1, 48 h
Protocol: as §1

RPMI-8226 = conditions: Homo sapiens, RPMI-8226, 48 h
Protocol: as §1

OVCAR-5 = conditions: Homo sapiens, OVCAR-5, 48 h
Protocol: as §1

BT-549 = conditions: Homo sapiens, BT-549, 48 h
Protocol: as §1

MOLT-4 = conditions: Homo sapiens, MOLT-4, 48 h
Protocol: as §1

SR = conditions: Homo sapiens, SR, 48 h
Protocol: as §1

N=C(NO)C1=C(N)Oc2c(ccc3ccccc23)C1c1ccccc1 (stereo not shown) [5a, 2-Amino-4-phenyl-N-hydroxy-4H-benzo[h]chromene-3-carboxamidine]
GI50 (SK-MEL-2; read-out: GI50 5a): 28700 nM
GI50 (786-0; read-out: GI50 5a): 560 nM
GI50 (HCT-15; read-out: GI50 5a): 130 nM
GI50 (EKVX; read-out: GI50 5a): 820 nM
GI50 (NCI/ADR-RES; read-out: GI50 5a): 60 nM
GI50 (SF-539; read-out: GI50 5a): 210 nM
GI50 (HOP-92; read-out: GI50 5a): 820 nM
GI50 (CCRF-CEM; read-out: GI50 5a): 380 nM
GI50 (A549/ATCC; read-out: GI50 5a): 420 nM
GI50 (M14; read-out: GI50 5a): 130 nM
GI50 (NCI-H460; read-out: GI50 5a): 310 nM
GI50 (IGROV1; read-out: GI50 5a): 330 nM
GI50 (RPMI-8226; read-out: GI50 5a): 380 nM
GI50 (OVCAR-5): 610 nM
GI50 (BT-549; read-out: GI50 5a): 1250 nM
GI50 (MOLT-4; read-out: GI50 5a): 430 nM
GI50 (SR; read-out: GI50 5a): 100 nM

CC(=O)NC1=C(C#N)C(c2ccccc2)c2ccc3ccccc3c2O1 (stereo not shown) [6a, N-(3-Cyano-4-phenyl-4H-benzo[h]chromen-2-yl)acetamide]
GI50 (SK-MEL-2; read-out: GI50 6a): 650 nM
GI50 (786-0; read-out: GI50 6a): 490 nM
GI50 (HCT-15; read-out: GI50 6a): 510 nM
GI50 (EKVX; read-out: GI50 6a): 49900 nM
GI50 (NCI/ADR-RES; read-out: GI50 6a): 300 nM
GI50 (SF-539; read-out: GI50 6a): 350 nM
GI50 (HOP-92; read-out: GI50 6a): 610 nM
GI50 (CCRF-CEM; read-out: GI50 6a): 390 nM
GI50 (A549/ATCC; read-out: GI50 6a): 980 nM
GI50 (M14; read-out: GI50 6a): 560 nM
GI50 (NCI-H460; read-out: GI50 6a): 370 nM
GI50 (IGROV1; read-out: GI50 6a): 530 nM
GI50 (RPMI-8226; read-out: GI50 6a): 410 nM
GI50 (OVCAR-5; read-out: GI50 6a): 2100 nM
GI50 (BT-549; read-out: GI50 6a): 990 nM
GI50 (MOLT-4; read-out: GI50 6a): 490 nM
GI50 (SR; read-out: GI50 6a): 470 nM
